Here are results for 2 molecules from patent US20100311643A1, “USE OF GLP-1 AS A THERAPEUTIC AGENT” (priority 2007, published 2010).

As a reminder, the viability is a per cent measure of how many cells are alive, often set against a control. As a reminder, the % inhibition is the percentage by which the read-out fell short of the control. The low end stands for a weak effect, the high end for a strong effect.

One series concerns HIV-1IIIB. The series is described as follows: HIV-1 antiviral assay (CPE reduction, MTS staining). Particulars: test peptide 10 micrograms per ml; 6 days post-infection; triplicate. Format: cell-based.
The nature of series [1]: Cytotoxicity in the HBV assay (dye uptake cell viability). Particulars: human.
A further series relates to Streptococcus pneumoniae. Format: cell-based. The note with it: 5 micrograms per ml.
Series [2] in a line: in vitro. Particulars: human, MRC-5 cells (embryonal lung fibroblasts).
Another series has as its system MRSA. The note with it: 5 micrograms per ml.
For the next series, the system named is Pseudomonas aeruginosa. Format: cell-based. Particulars: 5 micrograms per ml.
Series [3] in a line: in vitro. Particulars: human, CEM-SS cells (uninfected, cells plus peptide only).

As to `Cc1cn([C@H]2C[C@H](N=[N+]=[N-])[C@@H](CO)O2)c(=O)[nH]c1=O` [AZT], in the series with HIV-1IIIB, the “% CPE reduction in HIV-1 infected CEM-SS cells” value is given as 99%.

`CC[C@H](C)[C@H](NC(=O)[C@H](Cc1ccccc1)NC(=O)[C@H](CCC(=O)O)NC(=O)[C@H](CCCCN)NC(=O)[C@H](C)NC(=O)[C@H](C)NC(=O)[C@H](CCC(N)=O)NC(=O)CNC(=O)[C@H](CCC(=O)O)NC(=O)[C@H](CC(C)C)NC(=O)[C@H](Cc1ccc(O)cc1)NC(=O)[C@H](CO)NC(=O)[C@H](CO)NC(=O)[C@@H](NC(=O)[C@H](CC(=O)O)NC(=O)[C@H](CO)NC(=O)[C@@H](NC(=O)[C@H](Cc1ccccc1)NC(=O)[C@@H](NC(=O)CNC(=O)[C@H](CCC(=O)O)NC(=O)[C@H](C)NC(=O)[C@H](Cc1c[nH]cn1)NC(=O)[C@H](CCCNC(=N)N)NC(=O)[C@H](CCC(=O)O)NC(=O)[C@H](Cc1ccccc1)NC(=O)[C@H](CCC(=O)O)NC(=O)[C@H](CC(=O)O)NC(=O)[C@@H](N)Cc1c[nH]cn1)[C@@H](C)O)[C@@H](C)O)C(C)C)C(=O)N[C@@H](C)C(=O)N[C@@H](Cc1c[nH]c2ccccc12)C(=O)N[C@@H](CC(C)C)C(=O)N[C@H](C(=O)N[C@@H](CCCCN)C(=O)NCC(=O)N[C@@H](CCCNC(=N)N)C(=O)NCC(=O)O)C(C)C` [GLP-1] gave a viability at 144 h, 10 micrograms per ml in series [1] of 95.8%. In addition, the “% inhibition” value with Streptococcus pneumoniae, in the series with MRSA and in the series on Pseudomonas aeruginosa was 0.0% throughout. In the series “in vitro [2]”, the viability at 144 h came to 100%. Further, the viability at 10 micrograms per ml in the series “in vitro [3]” was found to be 100%.
